# Measured values from ChEMBL document CHEMBL5528058 (J Med Chem, 2024).
# Calls of active or inactive are those of the source. No cut-off for these calls is given here.
# How the values were obtained:
# Jurkat = assay: Antiproliferative activity against human Jurkat cells as cell killing incubated for 6 days by CCK-8 assay; conditions: 144 h
# 4T1 [1] = assay: Antitumor activity against mouse 4T1 cells implanted in BALB/c mouse assessed as increase in percentage of CD3+ CD4+ cells in tumor at 15 mg/kg, ip qd administered for 14 days by flow cytometry analysis (reference value: 0.32%); type: functional; conditions: time 14 day
# 4T1 [2] = assay: Antitumor activity against mouse 4T1 cells implanted in BALB/c mouse assessed as increase in percentage of CD3+ CD4+ cells in spleen at 15 mg/kg, ip qd administered for 14 days by flow cytometry analysis (reference value: 6.72%); type: functional; conditions: time 14 day
# 4T1 [3] = assay: Antiproliferative activity against mouse 4T1 cells as cell killing incubated for 6 days by CCK-8 assay; conditions: 4T1, 144 h
# 4T1 [4] = assay: Antitumor activity against mouse 4T1 cells implanted in BALB/c mouse assessed as increase in percentage of CD3+ CD8+ cells in spleen at 15 mg/kg, ip qd administered for 14 days by flow cytometry analysis (reference value: 3.34%); type: functional; conditions: time 14 day
# 4T1 [5] = assay: Antitumor activity against mouse 4T1 cells implanted in BALB/c mouse assessed as increase in percentage of CD3+ CD8+ cells in tumor at 15 mg/kg, ip qd administered for 14 days by flow cytometry analysis (reference value: 0.64%); type: functional; conditions: time 14 day
# MDA-MB-231 [6] = assay: Antiproliferative activity against human MDA-MB-231 cells as cell killing incubated for 6 days by CCK-8 assay; conditions: MDA-MB-231, 144 h
# [7] = target: Programmed cell death protein 1/Programmed cell death 1 ligand 1 (Homo sapiens, UniProt Q9NZQ7)
# Description: Inhibition of human PD-1/PD-L1 interaction by HTRF analysis
# [8] = AUC (0 to t) in ICR mouse at 10 mg/kg, IG measured upto 24 hrs by LCMS analysis; type: ADME, organism-based; conditions: in vivo, po
# MDA-MB-231 [9] = assay: Antitumor immunity activity against human MDA-MB-231 cells co-cultured with human PBMC assessed as cell killing incubated for 12 hrs; type: functional, cell-based
# [10] = Toxicity in BALB/c mouse implanted with mouse 4T1 cells assessed as morphological changes in spleen at 5 to 10 mg/kg, IG administered twice a day for 14 days by H and E staining based analysis; type: organism-based; conditions: in vivo, po, 336 h, dose 5-10 mg/kg, time 14 day
# [11] = MRT (0 to t) in ICR mouse at 10 mg/kg, IG measured upto 24 hrs by LCMS analysis; type: ADME, organism-based; conditions: in vivo, po
# [12] = Toxicity in BALB/c mouse implanted with mouse 4T1 cells assessed as morphological changes in kidney at 5 to 10 mg/kg, IG administered twice a day for 14 days by H and E staining based analysis; type: organism-based; conditions: in vivo, po, 336 h, dose 5-10 mg/kg, time 14 day
# PBMC = assay: Induction of cell death in human PBMC cells incubated for 6 days by CCK-8 assay; type: functional, cell-based; conditions: time 6.0 day
# [13] = Toxicity in BALB/c mouse implanted with mouse 4T1 cells assessed as morphological changes in tumor at 5 to 10 mg/kg, IG administered twice a day for 14 days by H and E staining based analysis; type: organism-based; conditions: in vivo, po, 336 h, dose 5-10 mg/kg, time 14 day
# [14] = AUC (0 to t) in ICR mouse at 1 mg/kg, iv measured upto 24 hrs by LCMS analysis; type: ADME, organism-based; conditions: in vivo
# [15] = AUC (0 to infinity) in ICR mouse at 10 mg/kg, IG measured upto 24 hrs by LCMS analysis; type: ADME, organism-based; conditions: in vivo, po
# [16] = Tmax in ICR mouse at 10 mg/kg, IG measured upto 24 hrs by LCMS analysis; type: ADME, organism-based; conditions: in vivo, po
# [17] = AUC (0 to infinity) in ICR mouse at 1 mg/kg, iv measured upto 24 hrs by LCMS analysis; type: ADME, organism-based; conditions: in vivo
# [18] = Half life in ICR mouse at 1 mg/kg, iv measured upto 24 hrs by LCMS analysis; type: ADME, organism-based; conditions: in vivo
# [19] = Toxicity in BALB/c mouse implanted with mouse 4T1 cells assessed as morphological changes in lung at 5 to 10 mg/kg, IG administered twice a day for 14 days by H and E staining based analysis; type: organism-based; conditions: in vivo, po, 336 h, dose 5-10 mg/kg, time 14 day
# [20] = Cmax in ICR mouse at 10 mg/kg, IG measured upto 24 hrs by LCMS analysis; type: ADME, organism-based; conditions: in vivo, po
# [21] = MRT (0 to t) in ICR mouse at 1 mg/kg, iv measured upto 24 hrs by LCMS analysis; type: ADME, organism-based; conditions: in vivo
# [22] = Clearance in ICR mouse at 1 mg/kg, iv measured upto 24 hrs by LCMS analysis; type: ADME, organism-based; conditions: in vivo
# [23] = MRT (0 to infinity) in ICR mouse at 10 mg/kg, IG measured upto 24 hrs by LCMS analysis; type: ADME, organism-based; conditions: in vivo, po
# [24] = Acute toxicity in ICR mouse at 250 to 500 mg/kg, IG measured for 7 days; type: organism-based; conditions: in vivo, po, 168 h, dose 250-500 mg/kg, time 7 day
# [25] = Toxicity in BALB/c mouse implanted with mouse 4T1 cells assessed as morphological changes in heart at 5 to 10 mg/kg, IG administered twice a day for 14 days by H and E staining based analysis; type: organism-based; conditions: in vivo, po, 336 h, dose 5-10 mg/kg, time 14 day
# [26] = Toxicity in BALB/c mouse implanted with mouse 4T1 cells assessed as body weight loss at 5 to 10 mg/kg, IG administered twice a day for 14 days; type: organism-based; conditions: in vivo, po, 336 h, dose 5-10 mg/kg, time 14 day
# [27] = Half life in ICR mouse at 10 mg/kg, IG measured upto 24 hrs by LCMS analysis; type: ADME, organism-based; conditions: in vivo, po
# 4T1 [28] = assay: Antitumor activity against mouse 4T1 cells implanted in BALB/c mouse assessed as tumor growth inhibition at 10 mg/kg, IG administered twice a day for 14 days; conditions: 4T1, po, 336 h, read-out: TGI
# [29] = target: Programmed cell death 1 ligand 1 (Mus musculus, UniProt Q9EP73); assay: Binding affinity to his-tagged mouse PD-L1 expressed in HEK293 cells assessed as dissociation constant by SPR analysis
# 4T1 [30] = assay: Antitumor activity against mouse 4T1 cells implanted in BALB/c mouse assessed as reduction in ki-67 expression at 10 mg/kg, IG administered twice a day for 14 days by immunohistochemistry analysis; type: functional, organism-based; conditions: time 14.0 day
# 4T1 [31] = assay: Antitumor activity against mouse 4T1 cells implanted in BALB/c mouse assessed as tumor growth inhibition at 5 mg/kg, IG administered twice a day for 14 days; conditions: 4T1, po, 336 h, read-out: TGI
# [32] = Oral bioavailability in ICR mouse at 1 mg/kg measured upto 24 hrs by LCMS analysis; type: ADME, organism-based; conditions: in vivo
# [33] = MRT (0 to infinity) in ICR mouse at 1 mg/kg, iv measured upto 24 hrs by LCMS analysis; type: ADME, organism-based; conditions: in vivo
# [34] = Toxicity in BALB/c mouse implanted with mouse 4T1 cells assessed as morphological changes in liver at 5 to 10 mg/kg, IG administered twice a day for 14 days by H and E staining based analysis; type: organism-based; conditions: in vivo, po, 336 h, dose 5-10 mg/kg, time 14 day
# [35] = Toxicity in BALB/c mouse implanted with mouse 4T1 cells assessed as side effect at 5 to 10 mg/kg, IG administered twice a day for 14 days; type: organism-based; conditions: in vivo, po, 336 h, dose 5-10 mg/kg, time 14 day
# MDA-MB-231 [36] = assay: Induction of cell death in human MDA-MB-231 cells incubated for 6 days by CCK-8 assay; type: functional, cell-based; conditions: time 6.0 day
# [37] = target: Programmed cell death protein 1 (Homo sapiens, UniProt Q15116); assay: Inhibition of human recombinant PD-1 by HTRF analysis
# Sequence of Programmed cell death protein 1 (Q15116 whole entry): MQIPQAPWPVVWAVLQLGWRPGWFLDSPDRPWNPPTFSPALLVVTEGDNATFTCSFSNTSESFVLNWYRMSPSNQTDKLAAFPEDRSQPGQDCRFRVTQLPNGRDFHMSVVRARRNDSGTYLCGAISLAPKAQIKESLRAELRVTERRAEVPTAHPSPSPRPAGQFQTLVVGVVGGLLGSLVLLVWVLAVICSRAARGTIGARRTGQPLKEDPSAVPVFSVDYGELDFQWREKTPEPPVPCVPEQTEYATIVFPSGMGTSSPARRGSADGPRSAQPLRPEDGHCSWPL
# Sequence of Programmed cell death protein 1/Programmed cell death 1 ligand 1 (Q15116 whole entry): as above
# Sequence of Programmed cell death protein 1/Programmed cell death 1 ligand 1 (Q9NZQ7 whole entry): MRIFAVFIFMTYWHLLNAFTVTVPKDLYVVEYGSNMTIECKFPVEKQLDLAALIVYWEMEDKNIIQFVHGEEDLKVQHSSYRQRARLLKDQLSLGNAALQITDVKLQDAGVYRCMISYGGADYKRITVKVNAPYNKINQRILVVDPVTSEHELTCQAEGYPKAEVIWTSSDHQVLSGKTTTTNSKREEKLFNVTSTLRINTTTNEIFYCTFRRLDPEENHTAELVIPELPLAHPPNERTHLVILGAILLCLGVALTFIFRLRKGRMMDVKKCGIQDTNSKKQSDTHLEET
# Sequence of Programmed cell death 1 ligand 1 (Q9EP73 whole entry): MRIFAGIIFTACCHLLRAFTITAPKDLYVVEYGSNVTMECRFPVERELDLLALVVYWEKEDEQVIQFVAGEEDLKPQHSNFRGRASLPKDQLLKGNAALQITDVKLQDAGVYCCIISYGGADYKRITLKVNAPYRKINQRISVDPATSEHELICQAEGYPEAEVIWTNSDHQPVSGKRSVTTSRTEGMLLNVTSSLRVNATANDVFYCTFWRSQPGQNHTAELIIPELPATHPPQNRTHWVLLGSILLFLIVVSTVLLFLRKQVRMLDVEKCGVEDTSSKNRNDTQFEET
smiles,measurement,setting,value
COc1nc(OCc2cccc(-c3ccccc3)c2C)ccc1CNCCNC(C)=O,IC50,Jurkat,4330 nM
same,Activity,4T1 [1],0.58%
same,Activity,4T1 [2],5.4%
same,IC50,4T1 [3],5200 nM
same,Activity,4T1 [4],2.52%
same,Activity,4T1 [5],1.24%
same,IC50,MDA-MB-231 [6],19300 nM
CC(C(=O)O)N1CCc2nc(OCc3cccc(-c4ccccc4F)c3Cl)ccc2C1 (centres undefined),IC50,[7],31.3 nM
O=C(O)CN1CCc2nc(OCc3cccc(-c4ccccc4F)c3Cl)ccc2C1,AUC(0-t) at 24 h,[8],10200 ng·h/mL
same,IC50,Jurkat,53900 nM
same,Activity,MDA-MB-231 [9],Active
same,Activity,[10],Non-Toxic
same,MRT last at 24 h,[11],6.05 h
same,Activity,[12],Non-Toxic
same,Activity,PBMC,Active
same,Activity,[13],Toxic
same,AUC(0-t) at 24 h,[14],1800 ng·h/mL
same,AUC(0-inf),[15],10500 ng·h/mL
same,Tmax,[16],0.25 h
same,AUC(0-inf),[17],1820 ng·h/mL
same,half-life,[18],3.51 h
same,Activity,[19],Non-Toxic
same,Cmax,[20],1950 ng/mL
same,MRT last at 24 h,[21],3.7 h
same,clearance,[22],9.55 mL/min/kg
same,MRT inf,[23],7.35 h
same,Activity,[24],Non-Toxic
same,Activity,[25],Non-Toxic
same,Activity,[26],Non-Toxic
same,IC50,4T1 [3],77500 nM
same,half-life,[27],4.95 h
same,inhibition in vivo at 10 mg/kg,4T1 [28],66%
same,Kd,[29],392000 nM
same,Activity,4T1 [30],Active
same,inhibition in vivo at 5 mg/kg,4T1 [31],49%
same,bioavailability,[32],58%
same,MRT inf,[33],3.86 h
same,Activity,[34],Non-Toxic
same,IC50,MDA-MB-231 [6],15400 nM
same,Activity,[35],Non-Toxic
same,Activity,MDA-MB-231 [36],Active
Cc1ccccc1-c1cccc(COc2ccc3c(n2)CCN(CCO)C3)c1C,IC50,[7],406 nM
Cc1c(COc2ccc3c(n2)CCN(CCO)C3)cccc1-c1ccccc1,IC50,[7],227 nM
CCOC(=O)CN1CCc2nc(C(=O)Nc3cccc(-c4cccc(C#N)c4F)c3Cl)ccc2C1,IC50,[7],> 1000 nM
CC(C)Oc1cccc(-c2cccc(NC(=O)c3ccc4c(n3)CCN(CCO)C4)c2Cl)c1F,IC50,[7],83.5 nM
N#Cc1cccc(-c2cccc(NC(=O)c3ccc4c(n3)CCN(CCO)C4)c2Cl)c1F,IC50,[7],58.8 nM
CCOC(=O)CN1CCc2nc(C(=O)Nc3cccc(-c4cccc(OC(C)C)c4F)c3Cl)ccc2C1,IC50,[7],> 1000 nM
NC(=O)CN1CCc2nc(OCc3cccc(-c4ccccc4F)c3Cl)ccc2C1,IC50,[7],157 nM
O=C(Nc1cccc(-c2cccc(Cl)c2F)c1Cl)c1ccc2c(n1)CCN(CCO)C2,IC50,[7],24.2 nM
Cc1c(COc2ccc3c(n2)CCN(CCO)C3)cccc1-c1ccccc1Cl,IC50,[7],216 nM
O=C(Nc1cccc(-c2cccc(F)c2F)c1Cl)c1ccc2c(n1)CCN(CCO)C2,IC50,[7],20.1 nM
OCCN1CCc2nc(OCc3cccc(-c4ccccc4Cl)c3F)ccc2C1,IC50,[7],101 nM
OCCN1CCc2nc(OCc3cccc(-c4ccccc4F)c3F)ccc2C1,IC50,[7],105 nM
CCOC(=O)CN1CCc2nc(C(=O)Nc3cccc(-c4cccc(Cl)c4F)c3Cl)ccc2C1,IC50,[7],> 1000 nM
CCOC(=O)CN1CCc2nc(C(=O)Nc3cccc(-c4cccc(F)c4F)c3Cl)ccc2C1,IC50,[7],33800 nM
O=C(Nc1cccc(-c2ccccc2F)c1Cl)c1ccc2c(n1)CCN(CCO)C2,IC50,[7],21.6 nM
OCCN1CCc2nc(OCc3cccc(-c4ccccc4F)c3Cl)ccc2C1,IC50,[7],19.8 nM
COC(=O)CN1CCc2nc(OCc3cccc(-c4ccccc4F)c3Cl)ccc2C1,IC50,[7],369 nM
Cc1c(Nc2nccc3cc(CN4CC[C@@H](O)C4)cnc23)cccc1-c1cccc(-c2nc3ccc(CN4CC[C@@H](C(=O)O)C4)c(C#N)c3o2)c1C,IC50,[37],3.1 nM
CCOC(=O)CCN1CCc2nc(OCc3cccc(-c4ccccc4F)c3Cl)ccc2C1,IC50,[7],241 nM
CC(C)OC(=O)CN1CCc2nc(OCc3cccc(-c4ccccc4F)c3Cl)ccc2C1,IC50,[7],436 nM
Cc1c(COc2ccc3c(n2)CCN(CCO)C3)cccc1-c1ccccc1F,IC50,[7],170 nM
CCOC(=O)C(C)N1CCc2nc(OCc3cccc(-c4ccccc4F)c3Cl)ccc2C1 (centres undefined),IC50,[7],592 nM
OCCN1CCc2nc(OCc3cccc(-c4ccccc4Cl)c3Cl)ccc2C1,IC50,[7],95.1 nM
